Test results published in ChEMBL document CHEMBL1125993, “The function of S1 subsite pocket of carboxypeptidase A” (Bioorg Med Chem Lett, 1991).

Target: T1, Carboxypeptidase A1 (Bos taurus, UniProt P00730)
T1 sequence (P00730 whole entry): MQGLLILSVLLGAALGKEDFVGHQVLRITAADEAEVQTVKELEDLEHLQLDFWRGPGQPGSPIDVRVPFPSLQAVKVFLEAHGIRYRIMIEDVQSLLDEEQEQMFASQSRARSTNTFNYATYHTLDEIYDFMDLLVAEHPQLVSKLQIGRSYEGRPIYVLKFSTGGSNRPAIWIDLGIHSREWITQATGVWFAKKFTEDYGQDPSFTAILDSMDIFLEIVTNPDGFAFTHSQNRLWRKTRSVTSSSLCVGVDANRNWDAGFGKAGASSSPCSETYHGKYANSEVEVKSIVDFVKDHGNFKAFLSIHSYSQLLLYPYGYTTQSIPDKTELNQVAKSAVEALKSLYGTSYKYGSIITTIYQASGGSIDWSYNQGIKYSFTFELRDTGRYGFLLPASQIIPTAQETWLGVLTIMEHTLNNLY
Assay: Compound was evaluated for binding affinity against carboxypeptidase A (CPA), expressed as inhibitory constant (Ki)

Ki [nM]	Compound
160	O=C(O)C(CS)Cc1ccc(Cl)cc1 (centres undefined)
1500	CCC(c1ccccc1)C(CS)C(=O)O (centres undefined)
105	CC(c1ccccc1)C(CS)C(=O)O (centres undefined)
150	O=C(O)C(CS)Cc1ccc(Br)cc1 (centres undefined)
